Data set [1] is described as follows: Metabolic stability in mouse liver microsomes (MLM). For orientation: Microsomes from liver hold many membrane-bound enzymes, among them those of drug oxidation.
Experimental: 1.3.2 Metabolic-Stability Tests in Mouse Liver Microsomes (MLM).
Phase I metabolic stability was evaluated by incubating the compound (1 μM) with 0.5 mg/mL MLM (Corning) and 1 mM NADPH at 37 °C for 0, 5, 10, 15 and 30 min. The enzymatic activity of the MLM was determined by measuring the metabolic stability of Verapamil, Diphenhydramine and Benzydamine (1 μM each).
The half-life (t1/2) was determined by analyzing the concentrations of the compounds at the different time points by HPLC-MS/MS.
Data set [2] concerns Pseudomonas aeruginosa PA14. The experiment in a line: Pyocyanin assay in Pseudomonas aeruginosa. The class given is cell-based. The settings on record: PA14, 16 h, read-out: IC50 Pyocyanin. Here is the method: 1.2.2 Pyocyanin assay in Pseudomonas aeruginosa
Inhibition of pyocyanin biosynthesis of compounds was measured spectrophotometrically as previously described.[2] Pseudomonas aeruginosa PA14 was grown in rich medium for 16 h under agitation with and without compound. Pyocyanin was extracted from cultures with chloroform, then re-extracted with 0.2 M HCl and quantified photometrically (520 nm). IC50 values were determined from dose-response curves of compounds using at least six different concentrations and fitting with non-linear regression analysis (OriginPro 2017–2020, Originlab Corporation). […]

Data set [3] can be described thus: Kinetic turbidimetric aqueous solubility. The settings on record: PBS buffer, kinetic from dmso stock.
Data set [4] has as its system Bronchiectasis clinical isolates, PA14 and PAO1. Kind of data set: Antimicrobial minimal inhibitory concentrations (MIC), microdilution. On the technique in general: In broth dilution the organism is exposed to a series of concentrations in liquid medium.
Data set [5] has as its system Pseudomonas aeruginosa PA14. Further details: method as in PMID 31709767. The settings on record: previously published hit; read-out: IC50 Pyocyanin; cited from earlier work.
Data set [6] concerns the target T1, PqsR (Pseudomonas aeruginosa, UniProt Q9I4X0).
T1 construct: expressed in transfected cells; host or cells: Escherichia coli DH5α with plasmid pEAL08-2
The following applies: cited from earlier work.

[7] abbreviates: strain column 1 of 16 (strain heads not assignable).

As usually defined, the half-life is the time in which the quantity being followed falls by half. A lower half-life goes with fast loss. Broadly, the IC50 is the point on the concentration scale where inhibition reaches its midpoint. By kinetic solubility is commonly meant the concentration staying in solution when a stock, usually in DMSO, is diluted into the medium. In general, MIC refers to the smallest concentration in the dilution series that meets the test's criterion for growth inhibition. A low value points to a more susceptible organism.

≈ marks a conversion by molar mass, not a printed value. Like-named read-outs stand apart in the source and are kept apart here.

T1 sequence (Q9I4X0 whole entry): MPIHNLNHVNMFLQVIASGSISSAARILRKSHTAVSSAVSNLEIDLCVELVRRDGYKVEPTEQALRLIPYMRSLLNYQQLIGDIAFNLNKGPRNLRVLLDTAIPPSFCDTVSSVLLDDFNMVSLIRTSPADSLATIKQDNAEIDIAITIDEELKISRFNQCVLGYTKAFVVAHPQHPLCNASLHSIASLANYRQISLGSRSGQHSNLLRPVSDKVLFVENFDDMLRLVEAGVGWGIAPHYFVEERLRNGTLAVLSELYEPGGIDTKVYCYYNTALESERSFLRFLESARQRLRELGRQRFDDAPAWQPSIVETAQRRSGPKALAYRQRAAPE

Consider `Cc1cc(-c2ccc(CNc3ccnc(C(F)(F)F)c3)nc2)cnc1Cl` [Compound 15], for which, in data set [1], the half-life at 1 μM is less than 5 min. For the same compound, the IC50 in data set [2] came out at 1900 ± 300 nM. Further, the solubility (kinetic) at 5 min in data set [3] worked out at 112 µM (≈ 42.6 µg/mL).

Consider `FC(F)(F)c1cc(NCc2ccc(-c3ccc(Oc4ccccc4)nc3)cn2)ccn1` [Compound 19], for which the half-life at 1 μM in data set [1] was 35 min. Also, the IC50 in data set [2] worked out at 4200 ± 1100 nM. Further, the solubility (kinetic) at 5 min in data set [3] was found to be 25.6 µM (≈ 10.8 µg/mL).

Consider `COc1ccc(-c2ccc(CNc3ccnc(C(F)(F)F)c3)nc2)cn1` [Compound 14], for which the half-life at 1 μM in data set [1] is 77 min. In addition, the IC50 in data set [2] was determined as 2900 ± 800 nM. The same compound displayed a solubility (kinetic) at 5 min in data set [3] of more than 200 µM.

Regarding `CC(C)Oc1ncc(-c2ncc(CNc3ccnc(C(F)(F)F)c3)cn2)cc1Cl` [Compound 25], the half-life at 1 μM in data set [1] is more than 480 min. The IC50 in data set [2] was 523 ± 50 nM. The same compound gave a kinetic solubility at 5 min in data set [3] of 37.9 µM (≈ 16.1 µg/mL).

With `CC(C)Oc1ccc(-c2ncc(CNc3ccnc(C(F)(F)F)c3)cn2)cc1` [Compound 22], in data set [1], the half-life at 1 μM was more than 85 min. Besides, the IC50 in data set [2] amounted to 521 ± 300 nM. Further, in data set [3], the solubility (kinetic) at 5 min is 41.7 µM (≈ 16.2 µg/mL).

`Fc1ccc(CNc2ccnc(C(F)(F)F)c2)cc1` [Compound 2] showed a half-life at 1 μM in data set [1] of 54 min. The IC50 in data set [2] was determined as 176000 ± 47400 nM. Also, the kinetic solubility at 5 min in data set [3] is more than 200 µM.

For the compound `FC(F)(F)c1cc(NCc2ccc(-c3ccc(Cl)nc3)cn2)ccn1` [Compound 11], the half-life at 1 μM in data set [1] was more than 480 min. For the same compound, in data set [2], the IC50 is 7200 ± 4600 nM. In data set [3], the kinetic solubility at 5 min was determined as 161 µM (≈ 58.6 µg/mL).

Turning to `FC(F)(F)c1cc(NCc2ccc(-c3ccc(Cl)cc3)nc2)ccn1` [Compound 8], the half-life at 1 μM in data set [1] came to 50 min. In addition, the IC50 in data set [2] is 3300 ± 1300 nM. In addition, the solubility (kinetic) at 5 min in data set [3] was 38.9 µM (≈ 14.2 µg/mL).

For `FC(F)(F)c1cc(NCc2ccc(-c3ccc(Cl)cn3)cn2)ccn1` [Compound 10], the half-life at 1 μM in data set [1] amounted to 75 min. The IC50 in data set [2] was determined as 35100 ± 27500 nM. Further, the kinetic solubility at 5 min in data set [3] is more than 200 µM.

Regarding `FC(F)(F)c1cc(NCc2cnc(-c3ccc(Oc4ccccc4)cc3)nc2)ccn1` [Compound 21], the half-life at 1 μM in data set [1] came to 32 min. Moreover, the IC50 in data set [2] is 320 ± 110 nM. In addition, the solubility (kinetic) at 5 min in data set [3] is 10.9 µM (≈ 4.6 µg/mL).

Take `FC(F)(F)c1cc(SCc2ccc(-c3ccc(Cl)nc3)cn2)ccn1` [Compound 13]: the half-life at 1 μM in data set [1] came to 6 min. In addition, the IC50 in data set [2] was found to be 3100 ± 900 nM. The compound also showed a kinetic solubility at 5 min in data set [3] of 42.3 µM (≈ 16.2 µg/mL).

On to `FC(F)(F)c1cc(NCc2cccc(Br)c2)ccn1` [Compound 5], for which the half-life at 1 μM in data set [1] turned out to be 20 min. Moreover, the half-inhibitory concentration (IC50) in data set [2] is 71400 ± 27200 nM. The same compound returned a solubility (kinetic) at 5 min in data set [3] of more than 200 µM.

Turning to `FC(F)(F)c1cc(NCc2ccc(Cl)cc2)ccn1` [Compound 3], the half-life at 1 μM in data set [1] was 44 min. In addition, the IC50 in data set [2] turned out to be 19000 ± 1200 nM. In data set [3], this compound came in with a solubility (kinetic) at 5 min of more than 200 µM.

For Colistin, the minimal inhibitory concentration (MIC) was 2 µg/mL in data set [4] (setting [7]); 2 µg/mL in data set [4] (strain column 2 of 16); 1 µg/mL in data set [4] (strain column 3 of 16); not above 0.5 µg/mL in data set [4] (strain column 4 of 16); 1 µg/mL in data set [4] (strain column 5 of 16); 2 µg/mL in data set [4] (strain column 6 of 16). In addition, the minimum inhibitory concentration (MIC) in data set [4] (strain column 7 of 16) is listed as 1 µg/mL; in data set [4] (strain column 8 of 16), 2 µg/mL; in data set [4] (strain column 9 of 16), 2 µg/mL; in data set [4] (strain column 10 of 16), 1 µg/mL; in data set [4] (strain column 11 of 16), 1 µg/mL; in data set [4] (strain column 12 of 16), 2 µg/mL. The MIC in data set [4] (strain column 13 of 16) was found to be 1 µg/mL; in data set [4] (strain column 14 of 16) it was 1 µg/mL; in data set [4] (strain column 15 of 16), 1 µg/mL; in data set [4] (strain column 16 of 16) it was 2 µg/mL.

Take `FC(F)(F)c1cc(NCc2ccccc2Br)ccn1` [Compound 6]: the half-life at 1 μM in data set [1] came to 4 min. For the same compound, the IC50 in data set [2] was 126000 ± 10600 nM. In addition, in data set [3], the solubility (kinetic) at 5 min was more than 200 µM.

`FC(F)(F)c1cc(OCc2ccc(-c3ccc(Cl)nc3)cn2)ccn1` [Compound 12] yielded a half-life at 1 μM in data set [1] of 74 min. In data set [2], the IC50 is more than 20000 nM. This compound returned a solubility (kinetic) at 5 min in data set [3] of 48.1 µM (≈ 17.6 µg/mL).

Turning to `FC(F)(F)c1cc(NCc2cnc(-c3ccc(C4CC4)cc3)nc2)ccn1` [Compound 23], the half-life at 1 μM in data set [1] was determined as 3 min. For the same compound, the IC50 in data set [2] is 591 ± 70 nM. The compound further showed a kinetic solubility at 5 min in data set [3] of 16.5 µM (≈ 6.11 µg/mL).

For `Nc1cc(NCc2ccc(F)cc2)cc(C(F)(F)F)n1` [Compound 1], the IC50 in data set [5] was 107 µM; in data set [6] (read-out: IC50 PqsR, previously published hit) it was 2310 nM; in data set [6] (read-out: IC50 toward PqsR in heterologous lacZ reporter gene assay in E. coli) it was 2300 nM.

For `CC(C)(O/N=C(\C(=O)N[C@@H]1C(=O)N2C(C(=O)[O-])=C(C[n+]3ccccc3)CS[C@H]12)c1csc(N)n1)C(=O)O` [Ceftazidim], the MIC in data set [4] (setting [7]) is 2 µg/mL (≈ 3.66 µM); in data set [4] (strain column 2 of 16), 4 µg/mL (≈ 7.32 µM); in data set [4] (strain column 3 of 16) it was 2 µg/mL (≈ 3.66 µM); in data set [4] (strain column 4 of 16) it was not above 0.5 µg/mL; in data set [4] (strain column 5 of 16), 2 µg/mL (≈ 3.66 µM); in data set [4] (strain column 6 of 16) it was 1 µg/mL (≈ 1.83 µM). For the same compound, the MIC in data set [4] (strain column 7 of 16) is not above 0.5 µg/mL; in data set [4] (strain column 8 of 16), 4 µg/mL (≈ 7.32 µM); in data set [4] (strain column 9 of 16), not above 0.5 µg/mL; in data set [4] (strain column 10 of 16), 16 µg/mL (≈ 29.3 µM); in data set [4] (strain column 11 of 16), not above 0.5 µg/mL; in data set [4] (strain column 12 of 16) it was 2 µg/mL (≈ 3.66 µM). Further, the MIC in data set [4] (strain column 13 of 16) was not above 0.5 µg/mL; in data set [4] (strain column 14 of 16) it was 4 µg/mL (≈ 7.32 µM); in data set [4] (strain column 15 of 16), 4 µg/mL (≈ 7.32 µM); in data set [4] (strain column 16 of 16), 2 µg/mL (≈ 3.66 µM).

In turn, `FC(F)(F)c1cc(NCc2ccc(-c3cnc(Cl)c(C(F)(F)F)c3)cn2)ccn1` [Compound 16] had a half-life at 1 μM in data set [1] of 384 min. Besides, in data set [2], the half-inhibitory concentration (IC50) was found to be 2100 ± 400 nM. The solubility (kinetic) at 5 min in data set [3] came out at 101 µM (≈ 43.7 µg/mL).

`FC(F)(F)c1cc(NCc2ccc(-c3ccc(Cl)cc3)cn2)ccn1` [Compound 9] came in with a half-life at 1 μM in data set [1] of 57 min. Moreover, in data set [2], the IC50 came to 2900 ± 3900 nM. In data set [3], this compound gave a solubility (kinetic) at 5 min of 26.6 µM (≈ 9.68 µg/mL).

As to `FC(F)(F)c1cc(NCc2ccc(-c3ccc(Cl)cc3)cc2)ccn1` [Compound 7], the half-life at 1 μM in data set [1] was more than 40 min. The IC50 in data set [2] is 449 ± 74 nM. In addition, the solubility (kinetic) at 5 min in data set [3] was determined as 10 µM (≈ 3.63 µg/mL).

`FC(F)(F)c1cc(NCc2cnc(-c3ccc(Cl)c(Cl)c3)nc2)ccn1` [Compound 20]: in data set [1], the half-life at 1 μM is 61 min. For the same compound, the IC50 in data set [2] is 234 ± 57 nM. The compound also had a kinetic solubility at 5 min in data set [3] of 16.6 µM (≈ 6.63 µg/mL).

On to `FC(F)(F)c1cc(NCc2ccc(-c3cnc(Cl)c(Cl)c3)cn2)ccn1` [Compound 17], for which, in data set [1], the half-life at 1 μM turned out to be 45 min. The IC50 in data set [2] was determined as 802 ± 200 nM. This compound yielded a solubility (kinetic) at 5 min in data set [3] of 76.2 µM (≈ 30.4 µg/mL).

`FC(F)(F)c1cc(NCc2ccc(Br)cc2)ccn1` [Compound 4]: the half-life at 1 μM in data set [1] was 61 min. Moreover, the half-maximal inhibitory concentration (IC50) in data set [2] was 14400 ± 1600 nM. In data set [3], the kinetic solubility at 5 min is more than 200 µM.

In the case of `COc1ncc(-c2ccc(CNc3ccnc(C(F)(F)F)c3)nc2)cc1Cl` [Compound 18], the half-life at 1 μM in data set [1] turned out to be 2 min. Besides, the IC50 in data set [2] is 1500 ± 200 nM. Further, the kinetic solubility at 5 min in data set [3] amounted to 42.4 µM (≈ 16.7 µg/mL).

(Values after PMC9929129, “Towards Translation of PqsR Inverse Agonists: From In Vitro Efficacy Optimization to In Vivo Proof‐of‐Principle” (Advanced Science, 2023).)
